Measured values taken from patent US9850278B2, “Synthetic anti-inflammatory peptides and use thereof” (CARMEL-HAIFA UNIVERSITY ECONOMIC CORP., priority 2013, dated 2017).
Entries after “also recorded” stand apart in the source; their conditions may differ.

What was measured:
[1] = tested on: bovine mammary gland epithelial lined cells (BMEC); conditions: reported by Komine et al.; BMEC named for the bovine peptides; cited from earlier work
TNF-α = TNF-α secretion by LPS-activated U937-derived human macrophages, supernatant ELISA; format: cell-based; conditions: peptide 1-1000 μM 24 hrs, then LPS 100 ng/ml 24 hours; FKE effect at low concentrations (1-10 μM); others compared with FKE
Procedure: (§1) U937 monocytic cells were cultured and underwent differentiation to macrophages as described above in Example 1. The cells were then incubated for 24 hrs in the presence of synthetic peptides, at 1-1000 μM: FKE (SEQ ID NO: 1), FKECHLA (SEQ ID NO: 21), FKECH (SEQ ID NO: 4), EKF or YKE (SEQ ID NO: 2). Control cells were left untreated. After 24 hours, untreated or peptide-treated cells were activated with lipopolysaccharide (LPS, 100 ng/ml for 24 hours). Following activation with LPS, cell free supernatants were collected and their content of IL-10, TGF-β, IL-6 and TNF-α was determined by standard ELISA.

IL-6 = IL-6 secretion by U937-derived human macrophages, supernatant ELISA; format: cell-based; conditions: for IL-6 secretion, effect of peptide (Example 2, FIG. 4C): peptide 1-1000 μM 24 hrs, then LPS 100 ng/ml 24 hours, FKE effect at low concentrations (1-10 μM), others compared with FKE
Procedure: (§2) U937 monocytic cells were cultured in 1 ml culture media (RPMI 1640, Biological industries, Beit Haemek), supplemented with 10% Fetal Calf Serum (FCS), 1% pen strep (PS) and 0.04% β-mercaptoethanol) and seeded in 24 well plates (250,000 cells/well). The monocytes underwent differentiation to macrophages with PMA (50 ng/ml) for 48 Hours in a humidified atmosphere (7.5% CO2 at 37° C.). Then the cells were washed using preheated (37° C.) culture medium and synthetic peptides (FKE, SEQ ID NO: 1, or FKD, SEQ ID NO: 3, 0.1-1000 μM) were added to the cells for 24-48 hours. After 24 hours, untreated or peptide-treated cells were activated with lipopolysaccharide (LPS-stimulated, 100 ng/ml for 24 hours). After the indicated incubations, cell free supernatants were collected and their content of IL-10, TGF-β and IL-6 was determined by standard ELISA.
(§3) The results are presented in FIGS. 1-3 and summarized in Table 1 below (effect considered significant if ±30% of control):
as §1

TGF-β = TGF-β secretion by U937-derived human macrophages, supernatant ELISA; format: cell-based; conditions: for TGF-β secretion, effect of peptide (Example 2, FIG. 4B): peptide 1-1000 μM 24 hrs, then LPS 100 ng/ml 24 hours, FKE effect at low concentrations (1-10 μM), others compared with FKE
Procedure: as §2, §3, §1

IL-10 = IL-10 secretion by U937-derived human macrophages, supernatant ELISA; format: cell-based; conditions: for IL-10 secretion, effect of peptide (Example 2, FIG. 4A): peptide 1-1000 μM 24 hrs, then LPS 100 ng/ml 24 hours, FKE effect at low concentrations (1-10 μM), others compared with FKE; for IL-10 secretion, effect of peptide: significant if ±30% of control
Procedure: as §2, §3, §1

[2] = LPS-stimulated macrophages (peptide 24 hrs, then LPS 100 ng/ml 24 hrs)
[3] = Non-stimulated, 24 hrs, peptide at 1000 μM
[4] = Non-stimulated, 48 hrs, peptide 0.1-1000 μM
[5] = peptide at low concentrations (1-10 μM)

**Q.** For “FKDCHLA [positions 243-249 of human lactoferrin, Komine et al]”, which “induction of pro-inflammatory cytokines and chemokines (TNF-α, IL-6, IL-8 and MCP-1)” value (from here on “induction”) [1] is on record?
**A.** induction

**Q.** With FKECH as the substance, how does the “TNF-α secretion, effect of peptide (Example 2, FIG. 4D)” value (“TNF-α secretion, effect of peptide” below) (TNF-α) read?
**A.** pronounced activity in inhibiting

**Q.** What about the “IL-6 secretion, effect of peptide (Example 2, FIG. 4C)” value (from here on “IL-6 secretion … (Example 2, FIG. 4C)”) (IL-6) of the same substance?
**A.** less active than FKE

**Q.** What about the “TGF-β secretion, effect of peptide (Example 2, FIG. 4B)” value (TGF-β) of the same substance?
**A.** less active than FKE

**Q.** And the “IL-10 secretion, effect of peptide (Example 2, FIG. 4A)” value (from here on “IL-10 secretion … (Example 2, FIG. 4A)”) (IL-10)?
**A.** less active than FKE

**Q.** With “FKECHLA [known bovine lactoferrin-derived synthetic peptide, excluded from Formula I]” as the substance, how does the “TNF-α secretion, effect of peptide” value (TNF-α) read?
**A.** reproduced the effects

**Q.** What about the “IL-6 secretion … (Example 2, FIG. 4C)” value (IL-6) of the same substance?
**A.** reproduced the effects

**Q.** And the “induction” value [1]?
**A.** inactive

**Q.** For “GQKDLLFKDSAI [positions 295-307 of human lactoferrin, Komine et al]”, which “induction” value [1] is on record?
**A.** induction

**Q.** With “GQRDLFKDSAL [bovine counterpart of pep4, Komine et al]” as the substance, how does the “induction” value [1] read?
**A.** induced

**Q.** What does the source list for Glu-Lys-Phe [EKF]?
**A.** TNF-α secretion, effect of peptide (Example 2, FIG. 4D) (TNF-α): moderate inhibition; IL-6 secretion, effect of peptide (Example 2, FIG. 4C) (IL-6): did not reproduce these effects; TGF-β secretion, effect of peptide (Example 2, FIG. 4B) (TGF-β): did not reproduce these effects; IL-10 secretion, effect of peptide (Example 2, FIG. 4A) (IL-10): did not reproduce these effects

**Q.** For Phe-Lys-Glu (FKE), which “TNF-α secretion, effect of peptide” value (TNF-α) is on record?
**A.** inhibits

**Q.** And the “IL-6 secretion, effect of peptide” value (IL-6; [2])?
**A.** No Increase

**Q.** And the “IL-6 secretion, effect of peptide” value (IL-6; [3])?
**A.** Increase (at

**Q.** What about the “IL-6 secretion, peptide concentration at which increase starts” value (IL-6; Non-stimulated, 48 hrs) of the same substance?
**A.** at 0.1 μM)

**Q.** What about the “IL-6 secretion, effect of peptide” value (IL-6; [4]) of the same substance?
**A.** Increase (starts

**Q.** What about the “IL-6 secretion … (Example 2, FIG. 4C)” value (IL-6) of the same substance?
**A.** inhibits

**Q.** And the “TGF-β secretion, peptide concentration of maximal effect” value (TGF-β; LPS-stimulated, 24 hrs)?
**A.** 100 µM

**Q.** And the “TGF-β secretion, effect of peptide” value (TGF-β; Non-stimulated macrophages, 24 hrs incubation, peptide 0.1-1000 μM, significant if ±30% of control)?
**A.** No effect

**Q.** And the “TGF-β secretion, peptide concentration of maximal effect” value (TGF-β; Non-stimulated, 48 hrs)?
**A.** 10 µM

**Q.** What about the “TGF-β secretion, effect of peptide (Example 2, FIG. 4B)” value (TGF-β) of the same substance?
**A.** inhibits

**Q.** What about the “TGF-β secretion, effect of peptide (Example 1)” value (TGF-β; [5]) of the same substance?
**A.** inhibits

**Q.** What about the “IL-10 secretion, effect of peptide” value (IL-10; [2]) of the same substance?
**A.** increased

**Q.** What about the “IL-10 secretion, peptide concentration of maximal effect” value (“IL-10 secretion, peptide concentration” for short) (IL-10; LPS-stimulated, 24 hrs) of the same substance?
**A.** 1 µM

**Q.** And the “IL-10 secretion, peptide concentration” value (IL-10; Non-stimulated, 24 hrs)?
**A.** 10 µM

**Q.** What about the “IL-10 secretion, peptide concentration” value (IL-10; Non-stimulated, 48 hrs) of the same substance?
**A.** 0.1 µM

**Q.** And the “IL-10 secretion … (Example 2, FIG. 4A)” value (IL-10)?
**A.** induces

**Q.** What about the “IL-10 secretion, effect of peptide (Example 1)” value (IL-10; [5]) of the same substance?
**A.** induces

**Q.** With “Tyr-Lys-Glu (YKE) [synthetic tripeptide, from the corresponding position in murine lactoferrin]” as the substance, how does the “TNF-α secretion, effect of peptide” value (TNF-α) read?
**A.** better inhibition

**Q.** And the “IL-6 secretion … (Example 2, FIG. 4C)” value (IL-6)?
**A.** reproduced these effects

**Q.** And the “IL-10 secretion … (Example 2, FIG. 4A)” value (IL-10)?
**A.** did not affect

**Q.** What does the source list for “phenylalanine-lysine-aspartic acid [FKD]”?
**A.** IL-6 secretion, effect of peptide (IL-6; [2]): increased; also recorded: Increase (all conc.); IL-6 secretion, effect of peptide (IL-6; [3]): Increase (at; IL-6 secretion, peptide concentration at which increase starts (IL-6; Non-stimulated, 48 hrs): at 0.1 μM); IL-6 secretion, effect of peptide (IL-6; [4]): Increase; IL-6 secretion increase relative to FKE (IL-6; Non-stimulated, 48 hrs, fold of FKE): 4 fold; TGF-β secretion, peptide concentration of maximal effect (TGF-β; LPS-stimulated, 24 hrs): 10 µM; TGF-β secretion, peptide concentration of maximal effect (TGF-β; Non-stimulated, 24 hrs): 1 µM; TGF-β secretion, peptide concentration of maximal effect (TGF-β; Non-stimulated, 48 hrs): 10 µM; IL-10 secretion, effect of peptide (IL-10; [2]): decreased; also recorded: Decrease (max at; IL-10 secretion, peptide concentration of maximal effect (IL-10; LPS-stimulated, 24 hrs): 100 µM; IL-10 secretion, effect of peptide (IL-10; Non-stimulated macrophages, 24 hrs incubation, peptide 0.1-1000 μM): Decrease (max at; IL-10 secretion, peptide concentration of maximal effect (IL-10; Non-stimulated, 24 hrs): 1 µM; IL-10 secretion, peptide concentration of maximal effect (IL-10; Non-stimulated, 48 hrs): 1000 µM
